Measurements from PMC6508677, “Identification of druggable small molecule antagonists of the Plasmodium falciparum hexose transporter PfHT and assessment of ligand access to the glucose permeation pathway via FLAG-mediated protein engineering” (PLoS ONE, 2019).

Molecular target: T1, PfHT (Plasmodium falciparum, UniProt Q7KWJ5)
T1 sequence (Q7KWJ5 1-504): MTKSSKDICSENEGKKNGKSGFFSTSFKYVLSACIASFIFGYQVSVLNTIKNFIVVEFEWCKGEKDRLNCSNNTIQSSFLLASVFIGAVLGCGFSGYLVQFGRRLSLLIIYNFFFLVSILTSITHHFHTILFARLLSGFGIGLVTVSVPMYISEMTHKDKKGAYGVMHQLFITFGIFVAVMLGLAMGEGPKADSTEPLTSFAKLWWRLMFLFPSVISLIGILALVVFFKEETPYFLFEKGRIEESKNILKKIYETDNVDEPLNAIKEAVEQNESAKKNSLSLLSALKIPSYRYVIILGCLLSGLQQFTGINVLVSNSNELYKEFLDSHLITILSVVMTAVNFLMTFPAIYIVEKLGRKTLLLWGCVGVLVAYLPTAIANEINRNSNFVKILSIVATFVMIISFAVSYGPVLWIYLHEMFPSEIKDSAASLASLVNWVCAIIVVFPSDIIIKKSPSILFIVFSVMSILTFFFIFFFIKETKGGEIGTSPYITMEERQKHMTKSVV
Experiment: 2-DG uptake by HEK293 cells overexpressing PfHT
Assay type: cell-based
Set-up: expressed in transfected cells; host or cells: HEK293 (HEK293-FLIP, native hGLUT1 knocked down by shRNA)
Conditions: for remaining activity at 0.001 µM: 0.001 µM compound; for remaining activity at 0.3125 µM: 0.3125 µM compound (0.313 in Fig 1 sheet for WU-1); for remaining activity at 0.625 µM: 0.625 µM compound; for remaining activity at 1.25 µM: 1.25 µM compound; for remaining activity at 2.5 µM: 2.5 µM compound; for remaining activity at 5 µM: 5 µM compound; for remaining activity at 10 µM: 10 µM compound; for remaining activity at 20 µM: 20 µM compound; for remaining activity at 80 µM: 80 µM compound; for remaining activity at 160 µM: 160 µM compound; for remaining activity at 225 µM: 225 µM compound; for IC50: IC50 for inhibition of 2-DG uptake, HEK293 cells overexpressing PfHT, mean/reported value
Source text: Generation of HEK293 cells overexpressing PfHT and human GLUTs 1–4 were described elsewhere. Briefly, HEK293 cells were transfected with pcDNA3.1 FLII12Pglu-7006 (Addgene), containing the fluorescence resonance energy transfer (FRET) glucose sensor (HEK293-FLIP) and PfHT, human GLUT1 (hGLUT1), hGLUT2, hGLUT3, hGLUT4, hGLUT5 or hGLUT8 using Optifect (Life Technologies) according to manufacturer’s specifications. To increase retention of GLUT8 at the plasma membrane, the dileucine sorting signal E^7E^8XXXLL was modified to R^7R^8XXXLL as described in [17]. Stable transfectants were selected for G418 and hygromycin resistance to select for FRET sensor and hexose transporter, respectively. HEK293-FLIP cells were also used to generate cells stably transfected with FLAG-tagged PfHT (FTPfHT). FLAG tag ([…]) followed by a triple glycine linker and a tobacco etch virus (TEV) protease site (ENLYFQS) followed by a triple glycine linker was added to the N-terminus of PfHT via PCR [18] using Phusion Hot Start II High-Fidelity DNA Polymerase (Fisher Scientific). Single clones were selected by comparing their abilities to transport glucose as assayed via FRET and radiolabeled hexose uptake. In all cell lines, except for HEK293 cells overexpressing hGLUT1 and hGLUT5, native hGLUT1 was knocked down using shRNA as described elsewhere. Transcript levels of the individual GLUTs expressed in each cell line are as described in [13, 15] and in S1 Fig.
Glucose uptake by P. falciparum was performed essentially as described. P. falciparum strain 3D7 was cultured in 100 mm tissue culture dishes (Techno Plastic Products) in a 2% suspension of human erythrocytes and RPMI 1640 medium until reaching > 7.5% parasitemia. Cells were pelleted via centrifugation and resuspended in RPMI 1640 medium. To determine the uptake of radiolabeled glucose into the parasite, parasites were isolated from infected erythrocytes by permeablization with saponin (0.05 w/v), followed by centrifugation, aspiration of supernatant and washing of the pellet 3X with saline solution (135 mM NaCl, 2 mM KCl, 25 mM HEPES, 0.2 mM glucose and 1 mM MgCl2; pH 7.1) to remove cellular debris. WU-1 or DMSO vehicle were added to 100 μl parasites (resuspended in saline) 5 min prior to the addition of 100 μl [^14C]2-DOG (0.2- μCi/ml final concentration). 2-DG uptake was stopped after 2 min by layering the entire reaction over 300 μl of an oil mixture (5:4 mix of dibutyl phthalate / dinonyl phthalate) in Eppendorf tubes and centrifuged at 15,850 × g for 2 mins. The ratio of the estimated intracellular concentration of radiolabel relative to the extracellular concentration were calculated as described. Uptake of radiolabeled hexose into HEK293 cells was measured in glucose-free HBSS as described previously. Briefly, cells were plated at 400,000 cells/well overnight at 37°C in 24-well plates pre-treated with PEI. After 30-min incubation at 37°C in glucose-free HBSS in the presence of vehicle or increasing concentrations of compound, 2-DG uptake was measured in glucose-free HBSS for 4 min at 37°C. Cultures were washed in ice-cold 1X PBS and lysed in 0.1% Triton X-100 in 1X PBS. Radiolabeled hexose uptake was determined by liquid scintillation counting (Ultima Gold, Thermo Fisher) and normalized to total protein per well. Uptake data are plotted as percent uptake relative to vehicle-treated cells. Kinetic analyses were performed using the indicated concentrations of substrate and WU-1, with quenching of uptake after 1 min incubation. Incubation times had been previously determined as being in the linear range of time-dependent radiolabeled hexose uptake (2 min for 2-DG uptake into freed parasites; 2 and 4 min for D-Frc and 2-DG uptake HEK cell lines, respectively). Data were fit by least squares nonlinear regression analysis using GraphPad Prism 6.0 software.

[1] = HEK293, 4 min, read-out: 2-DG uptake (percent uptake relative to vehicle), AVE, PfHT
[2] = HEK293, 4 min, read-out: % Inhibition of 2-DG uptake vs vehicle

Row | SMILES | remaining activity at 0.001 µM [1] [%] | remaining activity at 0.3125 µM [1] [%] | remaining activity at 0.625 µM [1] [%] | remaining activity at 1.25 µM [1] [%] | remaining activity at 2.5 µM [1] [%] | remaining activity at 5 µM [1] [%] | remaining activity at 10 µM [1] [%] | remaining activity at 20 µM [1] [%] | remaining activity at 40 µM (HEK293, 4 min, read-out: 2-DG uptake (percent uptake relative to vehicle), AVE, PfHT, 40 µM compound) [%] | remaining activity at 80 µM [1] [%] | remaining activity at 160 µM [1] [%] | remaining activity at 225 µM [1] [%] | inhibition at 10 µM [2] [%] | IC50 [µM] | inhibition at 2.5 µM [2] [%]
1 | COc1cc(/C=N/NC(=O)c2cc(-c3ccccc3)sc2N)cc(OC)c1OC [WU-3, 2-amino-5-phenyl-N'-[(E)-(3,4,5-trimethoxyphenyl)methylidene]thiophene-3-carbohydrazide] | 100 | 109 | 104 | 103 | 104 | 87.6 | 62 | 42.7 | 42.2 | 37.1 | 31.1 | 18.9 | 51.8 | 9.2 | –
2 | COc1cc(/C=C2\COC/C(=C\c3cc(OC)c(OC)c(OC)c3)C2=O)cc(OC)c1OC [WU-5, (3E,5E)-3,5-bis[(3,4,5-trimethoxyphenyl)methylidene]oxan-4-one] | 100 | 92.8 | 89.8 | 72.2 | 61.4 | 48.9 | 32 | 30.9 | – | 32.8 | 34.5 | 35.8 | – | 1.9 | 47
